From PubChem BioAssay (NCI)
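Where inhibition never reached the appropriate level, the endpoint shown equals the highest concentration tested. Otherwise, values were interpolated linearly from a five-concentration, 48-hour dose response in 96-well plates. The concentration for 50% growth inhibition is given as GI50. TGI denotes the concentration required for complete inhibition of growth.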

Columns and labels:
Assay in all cases: NCI tumour cell line growth inhibition, 48 h
[1] = tested on: SR leukemia
[2] = tested on: IGROV1 ovarian
[3] = tested on: CCRF-CEM leukemia
[4] = tested on: OVCAR-5 ovarian
[5] = tested on: OVCAR-4 ovarian
[6] = tested on: MDA-MB-231 breast
[7] = tested on: HCT-15 colon
[8] = tested on: EKVX NSCLC
[9] = tested on: KM12 colon
[10] = tested on: A549 NSCLC
[11] = tested on: MCF7 breast
[12] = tested on: MALME-3M melanoma
[13] = tested on: UO-31 renal
[14] = tested on: HCC-2998 colon
[15] = tested on: RXF 393 renal
[16] = tested on: NCI-H23 lung
[17] = tested on: SK-MEL-28 melanoma
[18] = tested on: SF-268 CNS
[19] = tested on: NCI/ADR-RES ovarian
[20] = tested on: HOP-92 NSCLC
[21] = tested on: DU-145 prostate
[22] = tested on: HS 578T breast
[23] = tested on: UACC-62 melanoma
[24] = tested on: OVCAR-8 ovarian
[25] = tested on: SK-OV-3 ovarian
[26] = tested on: TK-10 renal
[27] = tested on: SW-620 colon
[28] = tested on: 786-0 renal
[29] = tested on: HOP-62 NSCLC
[30] = tested on: OVCAR-3 ovarian
[31] = tested on: SNB-75 CNS
[32] = tested on: BT-549 breast
[33] = tested on: T-47D breast
[34] = tested on: SF-295 CNS
[35] = tested on: PC-3 prostate
[36] = tested on: ACHN renal
[37] = tested on: HCT-116 colon
[38] = tested on: MDA-MB-468 breast
[39] = tested on: SK-MEL-2 melanoma
[40] = tested on: NCI-H522 lung
[41] = tested on: UACC-257 melanoma
[42] = tested on: NCI-H226 lung
[43] = tested on: U251 CNS
[44] = tested on: RPMI-8226 leukemia
[45] = tested on: MDA-MB-435
[46] = tested on: CAKI-1 renal
[47] = tested on: HL-60(TB) leukemia
[48] = tested on: COLO 205 colon
[49] = tested on: NCI-H460 lung
[50] = tested on: SF-539 CNS
[51] = tested on: A498 renal
[52] = tested on: LOX IMVI melanoma
[53] = tested on: SN12C renal
[54] = tested on: K-562 leukemia
[55] = tested on: HT29 colon
[56] = tested on: SNB-19 CNS
[57] = tested on: MOLT-4 leukemia

## COC(=O)C[C@](O)(CCC(C)C)C(=O)O[C@H]1C(OC)=C[C@@]23CCCN2CCc2cc4c(cc2[C@@H]13)OCO4
[1]
  GI50: 17.1 µM
  TGI: > 40.5 µM
[2]
  TGI: > 15.1 µM
[3]
  GI50: 4.62 µM
  TGI: > 11.2 µM
[4]
  TGI: > 15.7 µM
[5]
  TGI: > 15.5 µM
[6]
  TGI: > 17.8 µM
[7]
  GI50: 4.08 µM
  TGI: > 9.64 µM
[8]
  TGI: > 16.8 µM
[9]
  TGI: > 15.6 µM
[10]
  TGI: > 13.6 µM
[11]
  GI50: 1.37 µM
[12]
  GI50: 3.62 µM
  TGI: > 8.33 µM
[13]
  TGI: > 14.8 µM
[14]
  GI50: 2.58 µM
[15]
  GI50: 2.65 µM
[16]
  TGI: > 9.5 µM
[17]
  TGI: > 10.6 µM
[18]
  TGI: > 19.6 µM
[19]
  GI50: 1.5 µM
  TGI: 12 µM
[20]
  TGI: > 11 µM
[21]
  TGI: > 13.8 µM
[22]
  TGI: > 11.1 µM
[23]
  TGI: > 14.6 µM
[24]
  TGI: > 13.8 µM
[25]
  TGI: > 31 µM
[26]
  GI50: > 8 µM
  TGI: > 37.1 µM
[27]
  TGI: > 16.5 µM
[28]
  TGI: > 12.3 µM
[29]
  TGI: > 21.9 µM
[30]
  TGI: > 12.9 µM
[31]
  TGI: > 11 µM
[32]
  TGI: > 10.1 µM
[33]
  TGI: > 22.9 µM
[34]
  TGI: > 11.2 µM
[35]
  TGI: > 13.4 µM
[36]
  GI50: 3.59 µM
  TGI: > 10.9 µM
[37]
  GI50: 16.8 µM
  TGI: > 40.5 µM
[38]
  GI50: 1.8 µM
  TGI: > 8.31 µM
[39]
  GI50: 1.62 µM
  TGI: 8.71 µM
[40]
  GI50: 3.3 µM
  TGI: > 8.77 µM
[41]
  TGI: > 12.7 µM
[42]
  GI50: 2.57 µM
  TGI: > 10.2 µM
[43]
  TGI: > 11.9 µM
[44]
  TGI: > 8.64 µM
[45]
  TGI: > 14.4 µM
[46]
  TGI: > 25.1 µM
[47]
  GI50: 2.4 µM
[48]
  TGI: > 13.8 µM
[49]
  GI50: 1.51 µM
[50]
  GI50: 3.17 µM
  TGI: > 8.07 µM
[51]
  TGI: > 9.75 µM
[52]
  GI50: 2.54 µM
[53]
  TGI: > 19.3 µM
[54]
  GI50: 2.73 µM
  TGI: > 40.5 µM
[55]
  GI50: 4.69 µM
  TGI: > 14 µM
[56]
  GI50: 3.91 µM
  TGI: > 10.2 µM
[57]
  GI50: 10.5 µM
  TGI: > 40.5 µM
